The values below come from patent publication US12473287B2, “Synthetic co-crystals of anhydrous guanine and process for preparing the same” (EcoCrystal Ltd., priority 2016, dated 2025).

Structures are written as SMILES. Values joined by “and” are separate entries in the source; they are usually repeats but may differ in a detail not shown here. Equal entries are not always repeated.

The conditions of data set [1]: in the reflected direction; known values; cited from earlier work.
Data set [2] can be described thus: Dry storage stability at ambient conditions (FT-IR). As to conditions: stored dry at ambient conditions; FT-IR fresh vs 3 months old. In kind it is physicochemical. From the text:
FIG. 5 presents FT-IR spectra, showing fresh guanine monohydrate (top) vs 3 months old guanine monohydrate. Only small differences in the peak intensities are visible after 3 months. The typical signatures of structured water are still present (ν1, and ν3 stretching modes (broad peaks at 3420 and 3200 cm^−1) and ν2 bending mode (1596 cm^−1)).

As for `Nc1nc2nc[nH]c2c(=O)[nH]1` [Anhydrous guanine, guanine], the refractive index n in data set [1] was 1.83 and 1.81.
Turning to `Nc1nc2nc[nH]c2c(=O)[nH]1.O` [guanine monohydrate], in data set [2], the “stability, solid to solid transformation” value is reported as “stable for at least several months”.
